The text below walks through data of PMC3050433, “The effects of maribavir on the autophosphorylation of ganciclovir resistant mutants of the cytomegalovirus UL97 protein” (Herpesviridae, 2010).

What all share (type): biochemical
In one test the target is T1, UL97 M460I (Human cytomegalovirus, UniProt Q68101, M460I).
T1 construct: PCR reaction to generate the full length UL97; honey bee melittin secretion signal (N); made in house; host or cells: Sf21 insect cells, recombinant baculovirus (pMelBac C)
T1 sequence (Q68101 1-707 M460I): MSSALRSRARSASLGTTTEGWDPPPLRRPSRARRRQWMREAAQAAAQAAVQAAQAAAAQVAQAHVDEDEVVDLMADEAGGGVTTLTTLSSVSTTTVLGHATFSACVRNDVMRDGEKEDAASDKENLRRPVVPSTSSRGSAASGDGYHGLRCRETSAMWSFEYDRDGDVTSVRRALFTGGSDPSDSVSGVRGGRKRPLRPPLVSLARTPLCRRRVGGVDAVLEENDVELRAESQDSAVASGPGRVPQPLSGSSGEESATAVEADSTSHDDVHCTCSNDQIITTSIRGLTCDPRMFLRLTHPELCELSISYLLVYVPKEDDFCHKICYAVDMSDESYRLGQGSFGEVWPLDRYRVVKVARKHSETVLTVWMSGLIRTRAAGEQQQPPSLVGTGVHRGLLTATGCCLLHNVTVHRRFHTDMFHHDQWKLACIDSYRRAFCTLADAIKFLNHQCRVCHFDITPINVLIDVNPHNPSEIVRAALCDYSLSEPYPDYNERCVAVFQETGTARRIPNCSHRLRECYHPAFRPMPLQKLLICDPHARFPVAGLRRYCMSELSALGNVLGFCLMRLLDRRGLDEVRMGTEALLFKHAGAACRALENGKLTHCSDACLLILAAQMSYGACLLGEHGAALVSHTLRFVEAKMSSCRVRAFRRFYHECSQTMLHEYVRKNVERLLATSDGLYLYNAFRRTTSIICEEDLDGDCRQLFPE
As to the kind of experiment: UL97 autophosphorylation protein kinase assay, M460I. As for the experimental part: (§1) Analysis of the autophosphorylation of wild type and mutant UL97 protein species was performed by a standard protein kinase assay as previously described (46). Briefly, purified protein was added to 2× protein kinase buffer (100 mM Tris HCl, pH9.0, 20 mM MgCl2, 10 μM ATP, 4 mM DTT, 2 M NaCl) and 370 KBq [γ^32P] ATP (Amersham), made up to 20 μl with SDW and incubated at 37°C. The reactions were terminated by the addition of 2× SDS sample buffer followed by boiling for 3 minutes. The amount of radiolabelled phosphate incorporated by autophosphorylation was analysed by SDS-PAGE and measured using the Biorad Mulitanalyst. The protein kinase assays were initially performed for 2 to 60 minutes to determine the maximum rate of phosphate incorporation, all assays were then performed at the maximum rate which equated to 5 minutes.
(§2) Enzyme kinetic analysis was performed on the purified wild type and mutant UL97 protein species as above using increasing concentrations of ATP (2 μM to 20 μM). The amount of incorporated radiolabelled phosphate was plotted against the concentration of ATP in a Lineweaver Burke plot to determine the Km for ATP for each UL97 species. […]

Another test concerns the target T2, UL97 L595F (Human cytomegalovirus, UniProt Q68101, L595F).
T2 construct: PCR reaction to generate the full length UL97; honey bee melittin secretion signal (N); made in house; host or cells: Sf21 insect cells, recombinant baculovirus (pMelBac C)
T2 sequence (Q68101 1-707 L595F): T1 sequence (Q68101 1-707 M460I) with I460M, L595F
As to the kind of experiment: UL97 autophosphorylation protein kinase assay, L595F. On the procedure: as §1, §2

The target in another test is T3, UL97 A594T (Human cytomegalovirus, UniProt Q68101, A594T).
T3 construct: PCR reaction to generate the full length UL97; honey bee melittin secretion signal (N); made in house; host or cells: Sf21 insect cells, recombinant baculovirus (pMelBac C)
T3 sequence (Q68101 1-707 A594T): T1 sequence (Q68101 1-707 M460I) with I460M, A594T
The experiment in a line: UL97 autophosphorylation protein kinase assay, A594T. As for the experimental part: as §1, §2

Where a chain is given by its changes, count along the chain named.

Broadly, the Km is the concentration of substrate that gives half-maximal velocity. `Nc1ncnc2c1ncn2[C@@H]1O[C@H](COP(=O)(O)OP(=O)(O)OP(=O)(O)O)[C@@H](O)[C@H]1O` [ATP]: the Km was found to be 28 ± 2 µM at UL97 M460I (M460I, read-out: Km for ATP); 31 ± 4.5 µM on UL97 L595F (L595F, read-out: Km for ATP); 40 ± 4.2 µM at UL97 A594T (A594T, read-out: Km for ATP).
Broadly, the IC50 is the concentration needed to halve the response being measured. Consider `CC(C)Nc1nc2cc(Cl)c(Cl)cc2n1[C@H]1O[C@@H](CO)[C@H](O)[C@@H]1O` [maribavir, 5,6-dichloro-2-(isopropylamino)-1-beta-L-ribofuranosyl-1H-benzimidazole], for which the IC50 at UL97 M460I (M460I mutant) stood at 4.8 nM; at UL97 L595F (L595F mutant), 28 nM; on UL97 A594T (A594T mutant), 31 nM.
